The values that follow come from patent US20260200920A1, “SUBSTITUTED AMINOPYRIDINE COMPOUNDS FOR USE AS AKT1 INHIBITORS” (Atavistik Bio, Inc., priority 2023, published 2026).

The target of test [1] is T1, human recombinant kinase full-length AKT1 E17K (Homo sapiens, UniProt P31749, E17K).
T1 construct: Purified human recombinant kinase full-length AKT1 E17K was expressed in insect cells; made in house; host or cells: insect cells
Nature of the test: AKT1 E17K kinase assay (TR-FRET, Lance). Format: biochemical. The settings on record: 0.6 nM AKT1 E17K, 50 nM Ulight-CREBtide, either 50 μM ATP or 2 mM ATP, 60 min at RT. A digest of the protocol:
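Full-length AKT1 E17K from insect cells, PDPK1-activated, at 0.6 nM with 50 nM Ulight-CREBtide and 50 μM or 2 mM ATP, pH 7.5, 1% DMSO. Enzyme and compound preincubated 15 min, reaction run 60 min at RT; Eu-anti-phospho-CREB (Ser133) TR-FRET 665/620 ratio, 10-point curve, IC50 by 4-parameter fit.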

For test [2], the target named is T2, human recombinant kinase full-length wildtype AKT1 (Homo sapiens, UniProt P31749).
T2 construct: Purified human recombinant kinase full-length wildtype AKT1 was expressed in insect cells; made in house; host or cells: insect cells
T2 sequence (P31749 whole entry): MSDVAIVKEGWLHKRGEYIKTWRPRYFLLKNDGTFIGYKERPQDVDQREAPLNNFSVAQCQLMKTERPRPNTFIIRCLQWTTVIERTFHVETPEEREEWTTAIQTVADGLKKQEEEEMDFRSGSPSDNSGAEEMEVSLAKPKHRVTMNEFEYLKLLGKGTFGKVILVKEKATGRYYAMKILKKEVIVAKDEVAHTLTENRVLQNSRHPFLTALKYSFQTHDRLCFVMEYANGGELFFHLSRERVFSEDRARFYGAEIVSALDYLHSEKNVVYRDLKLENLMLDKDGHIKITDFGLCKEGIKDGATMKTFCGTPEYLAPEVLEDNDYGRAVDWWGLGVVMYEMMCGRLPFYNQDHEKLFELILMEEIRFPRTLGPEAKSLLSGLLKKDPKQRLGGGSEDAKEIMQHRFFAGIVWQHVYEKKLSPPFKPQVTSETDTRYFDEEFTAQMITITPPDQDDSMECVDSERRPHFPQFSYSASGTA
In words: AKT1 kinase assay (wildtype, TR-FRET, Lance). In kind it is biochemical. The settings on record: 0.6 nM wildtype AKT1, 50 nM Ulight-CREBtide, either 50 μM ATP or 2 mM ATP, 60 min at RT. The gist of the method:
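Insect-cell-expressed full-length human AKT1, PDPK1-activated (0.6 nM), preincubated with compound 15 min at RT, then reacted 60 min at RT with 50 nM ULight-CREBtide and 50 μM or 2 mM ATP (pH 7.5, 1% DMSO). Phospho-CREBtide read by Eu-anti-phospho-Ser133 TR-FRET (665/620 ratio); IC50 from 10-point 4-parameter fit.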

T1 sequence (P31749 whole entry E17K): as the sequence (P31749 whole entry) above, with E17K counted along it

In the case of `Cc1nc(NC(=O)[C@H]2CC[C@H](C(=O)O)CC2)ccc1-n1c(-c2cccnc2N)nc2ccc(-c3ccccc3)cc21` [Compound I-127, (1r,4r)-4-((5-(2-(2-aminopyridin-3-yl)-6-phenyl-1H-benzo[d]imidazol-1-yl)-6-methylpyridin-2-yl)carbamoyl)cyclohexane-1-carboxylic acid], the IC50 is 500 to 2000 nM in test [1] and less than 20000 nM in test [2].

On to `Cc1nc(NC(=O)C2CCC(C)(C(=O)O)CC2)ccc1-n1c(-c2cccnc2N)nc2ccc(-c3ccccc3)nc21` (stereo not drawn) [Compound I-128, 4-((5-(2-(2-aminopyridin-3-yl)-5-phenyl-3H-imidazo[4,5-b]pyridin-3-yl)-6-methylpyridin-2-yl)carbamoyl)-1-methylcyclohexane-1-carboxylic acid], for which the figures for the IC50 in test [1] and in test [2] were 500 to 2000 nM and less than 20000 nM, respectively.

In the case of `Cc1nc(NC(=O)C2CCC(C(=O)O)C2)ccc1-n1c(-c2cccnc2N)nc2ccc(-c3ccccc3)nc21` (stereo not drawn) [Compound I-129, 3-((5-(2-(2-aminopyridin-3-yl)-5-phenyl-3H-imidazo[4,5-b]pyridin-3-yl)-6-methylpyridin-2-yl)carbamoyl)cyclopentane-1-carboxylic acid], the values for the IC50 in test [1] and in test [2] were 500 to 2000 nM and less than 20000 nM, respectively.

With `Cc1nc(NC(=O)[C@H]2CC[C@H](C(=O)O)CC2)ccc1-n1c(-c2cccnc2N)nc2ccc(-c3ccccn3)cc21` [Compound I-130, (1r,4r)-4-((5-(2-(2-aminopyridin-3-yl)-6-(pyridin-2-yl)-1H-benzo[d]imidazol-1-yl)-6-methylpyridin-2-yl)carbamoyl)cyclohexane-1-carboxylic acid], the IC50 in test [1] is not below 2000 nM; in test [2] it was less than 20000 nM.

For `Cc1nc(NC[C@H]2CC[C@H](C(=O)O)CC2)ccc1-n1c(-c2cccnc2N)nc2ccc(-c3ccccc3)nc21` [Compound I-131, (1r,4r)-4-(((5-(2-(2-aminopyridin-3-yl)-5-phenyl-3H-imidazo[4,5-b]pyridin-3-yl)-6-methylpyridin-2-yl)amino)methyl)cyclohexane-1-carboxylic acid], the IC50 in test [1] is 500 to 2000 nM; in test [2] it was less than 20000 nM.

As for `Cc1nc(NC(=O)C2CCC(C(C)C(=O)O)C2)ccc1-n1c(-c2cccnc2N)nc2ccc(-c3ccccc3)nc21` (stereo not drawn) [Compound I-132, 2-(3-((5-(2-(2-aminopyridin-3-yl)-5-phenyl-3H-imidazo[4,5-b]pyridin-3-yl)-6-methylpyridin-2-yl)carbamoyl)cyclopentyl)propanoic acid], the results for the IC50 in test [1] and in test [2] were 500 to 2000 nM and less than 20000 nM, respectively.

On to `Cc1nc(-n2c(-c3cccnc3N)nc3ccc(-c4ccccn4)cc32)ccc1NC(=O)[C@H]1CC[C@H](C(=O)O)CC1` [Compound I-133, (1r,4r)-4-((6-(2-(2-aminopyridin-3-yl)-6-(pyridin-2-yl)-1H-benzo[d]imidazol-1-yl)-2-methylpyridin-3-yl)carbamoyl)cyclohexane-1-carboxylic acid], for which the results for the IC50 in test [1] and in test [2] were not below 2000 nM and less than 20000 nM, respectively.

As for `Cc1nc(N[C@H]2CC[C@@H](C(=O)O)CC2)ccc1-n1c(-c2cccnc2N)nc2ccc(-c3ccccc3)nc21` [Compound I-134, (1s,4s)-4-((5-(2-(2-aminopyridin-3-yl)-5-phenyl-3H-imidazo[4,5-b]pyridin-3-yl)-6-methylpyridin-2-yl)amino)cyclohexane-1-carboxylic acid], the IC50 was 500 to 2000 nM in test [1] and less than 20000 nM in test [2].

Turning to `CC(C)(C(=O)O)C1CCN(Cc2ccc(-n3c(-c4cccnc4N)nc4ccc(-c5ccccc5)nc43)cn2)CC1` [Compound I-135, 2-(1-((5-(2-(2-aminopyridin-3-yl)-5-phenyl-3H-imidazo[4,5-b]pyridin-3-yl)pyridin-2-yl)methyl)piperidin-4-yl)-2-methylpropanoic acid], the IC50 is not below 2000 nM in test [1] and less than 20000 nM in test [2].

Regarding `Nc1ncccc1-c1nc2ccc(-c3ccccc3)nc2n1-c1ccc(CN2CC3(CC(C(=O)O)C3)C2)nc1` [Compound I-136, 2-((5-(2-(2-aminopyridin-3-yl)-5-phenyl-3H-imidazo[4,5-b]pyridin-3-yl)pyridin-2-yl)methyl)-2-azaspiro[3.3]heptane-6-carboxylic acid], the figures for the IC50 in test [1] and in test [2] were 500 to 2000 nM and less than 20000 nM, respectively.

For the compound `Nc1ncccc1-c1nc2ccc(-c3ccccc3)nc2n1-c1ccc(NCC2CC3(C2)CC(C(=O)O)C3)nc1` (stereo not drawn) [Compound I-137, 6-(((5-(2-(2-aminopyridin-3-yl)-5-phenyl-3H-imidazo[4,5-b]pyridin-3-yl)pyridin-2-yl)amino)methyl)spiro[3.3]heptane-2-carboxylic acid], the IC50 in test [1] was less than 500 nM; in test [2] it was less than 20000 nM.

Consider `C[C@]1(C(=O)O)CC[C@H](CN2CC(c3ccc(-n4c(-c5cccnc5N)nc5ccc(-c6ccccc6)nc54)cc3)C2)CC1` [Compound I-138, (1r,4r)-4-((3-(4-(2-(2-aminopyridin-3-yl)-5-phenyl-3H-imidazo[4,5-b]pyridin-3-yl)phenyl)azetidin-1-yl)methyl)-1-methylcyclohexane-1-carboxylic acid], for which the half-inhibitory concentration (IC50) was less than 500 nM in test [1] and less than 20000 nM in test [2].

Consider `Cc1cc(C2CN(C[C@H]3CC[C@H](C(=O)O)CC3)C2)ccc1-n1c(-c2cccnc2N)nc2ccc(-c3ccccc3)nc21` [Compound I-139, (1r,4r)-4-((3-(4-(2-(2-aminopyridin-3-yl)-5-phenyl-3H-imidazo[4,5-b]pyridin-3-yl)-3-methylphenyl)azetidin-1-yl)methyl)cyclohexane-1-carboxylic acid], for which the IC50 is less than 500 nM in test [1] and less than 20000 nM in test [2].

Regarding `NC(=O)C1CCC(CN2CC(c3ccc(-n4c(-c5cccnc5N)nc5ccc(-c6ccccc6)nc54)cc3)C2)CC1` (stereo not drawn) [Compound I-140, 4-((3-(4-(2-(2-aminopyridin-3-yl)-5-phenyl-3H-imidazo[4,5-b]pyridin-3-yl)phenyl)azetidin-1-yl)methyl)cyclohexane-1-carboxamide], the IC50 in test [1] is 500 to 2000 nM; in test [2], less than 20000 nM.

As to `CNC(=O)[C@H]1CC[C@H](C(=O)Nc2ccc(-n3c(-c4cccnc4N)nc4ccc(-c5ccccc5)nc43)c(C)n2)CC1` [Compound I-141, (1r,4r)-N1-(5-(2-(2-aminopyridin-3-yl)-5-phenyl-3H-imidazo[4,5-b]pyridin-3-yl)-6-methylpyridin-2-yl)-N4-methylcyclohexane-1,4-dicarboxamide], the IC50 was 500 to 2000 nM in test [1] and less than 20000 nM in test [2].

As to `Cc1nc(NC(=O)[C@H]2CC[C@H](C(N)=O)CC2)ccc1-n1c(-c2cccnc2N)nc2ccc(-c3ccccc3)nc21` [Compound I-142, trans-N-(5-(2-(2-aminopyridin-3-yl)-5-phenyl-3H-imidazo[4,5-b]pyridin-3-yl)-6-methylpyridin-2-yl)cyclohexane-1,4-dicarboxamide], the values for the IC50 in test [1] and in test [2] were 500 to 2000 nM and less than 20000 nM, respectively.

With `CC(C)C([C@H]1CC[C@H](C(=O)O)CC1)N1CC(c2ccc(-n3c(-c4cccnc4N)nc4ccc(-c5ccccc5)nc43)cc2)C1` (stereo partly drawn) [Compound I-143], the half-inhibitory concentration (IC50) in test [1] is 500 to 2000 nM; in test [2] it was less than 20000 nM.

Take `Nc1ncccc1-c1nc2ccc(-c3ccccc3)nc2n1-c1ccc(C2CN(CC34CCC(C(=O)O)(CC3)CC4)C2)cc1` [Compound I-146]: the IC50 was less than 500 nM in test [1] and less than 20000 nM in test [2].

Take `CC1(C)C[C@H](CN2CC(c3ccc(-n4c(-c5cccnc5N)nc5ccc(-c6ccccc6)nc54)cc3)C2)CC(C)(C)[C@H]1C(=O)O` [Compound I-147]: the results for the IC50 in test [1] and in test [2] were less than 500 nM and less than 20000 nM, respectively.

Turning to `CC1(C)C[C@H](CN2CC(c3ccc(-n4c(-c5cccnc5N)nc5ccc(-c6ccccc6)nc54)cc3)C2)CC(C)(C)[C@@H]1C(=O)O` [Compound I-148], the IC50 in test [1] is less than 500 nM; in test [2], less than 20000 nM.

For `Nc1ncccc1-c1nc2ccc(-c3ccccc3)nc2n1-c1ccc(C2CN(C[C@H]3CC4CC3CC4C(=O)O)C2)cc1` (stereo partly drawn) [Compound I-149], the IC50 in test [1] was less than 500 nM; in test [2], less than 20000 nM.

Take `Nc1ncccc1-c1nc2ccc(-c3ccccc3)nc2n1-c1ccc(C2CN(C[C@@H]3CC4CC3CC4C(=O)O)C2)cc1` (stereo partly drawn) [Compound I-150]: the IC50 in test [1] was less than 500 nM; in test [2], less than 20000 nM.

For `Nc1ncccc1-c1nc2ccc(-c3ccccc3)nc2n1-c1ccc(C2CN(CC3CC4CC(C(=O)O)CC4C3)C2)cc1` (stereo not drawn) [Compound I-151], the values for the IC50 in test [1] and in test [2] were less than 500 nM and less than 20000 nM, respectively.

Consider `CNS(=O)(=O)C1CCC(CN2CC(c3ccc(-n4c(-c5cccnc5N)nc5ccc(-c6ccccc6)nc54)cc3)C2)CC1` (stereo not drawn) [Compound I-152], for which the IC50 in test [1] is 500 to 2000 nM; in test [2], less than 20000 nM.

Regarding `Nc1ncccc1-c1nc2ccc(-c3ccccc3)nc2n1-c1ccc(C2CN(CC3CCC(CC(=O)O)CC3)C2)cc1` (stereo not drawn) [Compound I-153], the figures for the IC50 in test [1] and in test [2] were less than 500 nM and less than 20000 nM, respectively.

For `CC1(c2ccc(-n3c(-c4cccnc4N)nc4ccc(-c5ccccc5)nc43)cc2)CN(C[C@H]2CC[C@H](C(=O)O)CC2)C1` [Compound I-154], the figures for the IC50 in test [1] and in test [2] were 500 to 2000 nM and less than 20000 nM, respectively.

As for `CC1(c2ccc(-n3c(-c4cccnc4N)nc4ccc(-c5ccccc5)nc43)cc2)CN(CC2CC3(C2)CC(C(=O)O)C3)C1` (stereo not drawn) [Compound I-155], the IC50 in test [1] is less than 500 nM; in test [2] it was less than 20000 nM.
